PMC4005788 (Nature medicine, 2013)

What was measured:
PNI rats = test: Paw withdrawal threshold; format: in vivo, rat
hERG channel = hERG channel (Homo sapiens, UniProt Q12809); test: hERG inhibition of tail current, automated patch-clamp; format: cell-based
[1] = Pharmacokinetic analysis in rats; format: in vivo; conditions: rat
rats = test: Accelerating rotorod assay; format: in vivo, rat; conditions: equipotent oral doses, 2 h post-dose
NG108-cl cells = test: Clomeleon assay of [Cl−]i in NG108-cl cells; format: cell-based
rat hepatoma H4IIE cells = test: Caspase-3 activation in H4IIE cells; format: cell-based; conditions: 24-h exposure, up to 300 μM
other CCCs = test: Rb+ flux assay in X. laevis oocytes expressing other CCCs; format: cell-based; conditions: 200 nM pre-incubation
KCC2 [2] = target: T1, KCC2 (Rattus norvegicus, UniProt Q63633); test: Imaging of K+-driven Cl− transport; format: cell-based; conditions: for increase of the rate of Cl− accumulation: 25 μM, 15 mM KCl
T1 sequence (Q63633 1-1116 isoform Q63633-2): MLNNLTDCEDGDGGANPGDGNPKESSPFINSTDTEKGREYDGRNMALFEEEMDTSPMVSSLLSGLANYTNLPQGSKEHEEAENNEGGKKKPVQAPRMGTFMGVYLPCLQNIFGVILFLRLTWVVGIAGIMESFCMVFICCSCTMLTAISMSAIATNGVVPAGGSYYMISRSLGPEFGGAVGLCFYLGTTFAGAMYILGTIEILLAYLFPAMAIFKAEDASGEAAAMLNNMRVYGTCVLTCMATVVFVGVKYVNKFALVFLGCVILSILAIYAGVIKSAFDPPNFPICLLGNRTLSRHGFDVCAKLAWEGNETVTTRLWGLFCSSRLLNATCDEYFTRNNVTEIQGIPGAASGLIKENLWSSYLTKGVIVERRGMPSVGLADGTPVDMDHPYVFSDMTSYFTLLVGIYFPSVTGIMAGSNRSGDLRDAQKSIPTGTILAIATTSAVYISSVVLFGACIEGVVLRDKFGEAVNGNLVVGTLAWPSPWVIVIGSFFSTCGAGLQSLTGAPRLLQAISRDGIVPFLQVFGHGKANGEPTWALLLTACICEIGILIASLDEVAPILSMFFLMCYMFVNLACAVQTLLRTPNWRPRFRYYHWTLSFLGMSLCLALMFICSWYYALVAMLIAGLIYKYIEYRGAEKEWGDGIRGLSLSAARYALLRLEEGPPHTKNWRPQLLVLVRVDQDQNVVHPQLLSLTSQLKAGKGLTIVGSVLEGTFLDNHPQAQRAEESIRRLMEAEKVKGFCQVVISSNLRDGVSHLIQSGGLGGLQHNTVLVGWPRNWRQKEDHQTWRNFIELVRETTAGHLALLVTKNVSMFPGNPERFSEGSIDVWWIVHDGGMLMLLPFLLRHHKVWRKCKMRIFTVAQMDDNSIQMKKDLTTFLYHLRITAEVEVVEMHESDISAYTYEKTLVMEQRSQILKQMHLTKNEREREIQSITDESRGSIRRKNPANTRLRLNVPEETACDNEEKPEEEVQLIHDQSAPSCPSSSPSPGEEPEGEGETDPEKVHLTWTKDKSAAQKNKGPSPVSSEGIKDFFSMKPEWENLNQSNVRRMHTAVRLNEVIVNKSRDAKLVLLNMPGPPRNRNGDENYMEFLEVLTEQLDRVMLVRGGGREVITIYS

KCC2 [3] = target: T1, KCC2; test: Cell surface biotinylation and immunoblot of KCC2 in BDNF-treated spinal slices; format: cell-based; conditions: 100 μM, BDNF-pretreated slices
[4] = target: recombinant α1β2γ2 GABAA receptors (Homo sapiens, UniProt P14867+P18507+P47870); test: GABAA receptor automated whole cell patch-clamp in CHO cells; format: cell-based; conditions: 50 μM CLP257, CHO cells
Chain of recombinant α1β2γ2 GABAA receptors (P14867 28-456): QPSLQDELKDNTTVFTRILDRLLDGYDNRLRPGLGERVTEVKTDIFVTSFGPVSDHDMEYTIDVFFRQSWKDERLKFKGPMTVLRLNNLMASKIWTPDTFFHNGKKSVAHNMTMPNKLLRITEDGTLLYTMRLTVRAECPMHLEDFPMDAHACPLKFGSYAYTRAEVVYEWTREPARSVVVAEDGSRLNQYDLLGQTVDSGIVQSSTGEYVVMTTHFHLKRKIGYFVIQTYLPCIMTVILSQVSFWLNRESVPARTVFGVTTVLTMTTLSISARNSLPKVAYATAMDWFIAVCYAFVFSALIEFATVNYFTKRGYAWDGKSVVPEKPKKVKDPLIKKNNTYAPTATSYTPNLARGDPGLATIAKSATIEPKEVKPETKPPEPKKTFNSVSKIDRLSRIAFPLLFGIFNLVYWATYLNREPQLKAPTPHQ
Chain of recombinant α1β2γ2 GABAA receptors (P47870 25-512 limits assumed): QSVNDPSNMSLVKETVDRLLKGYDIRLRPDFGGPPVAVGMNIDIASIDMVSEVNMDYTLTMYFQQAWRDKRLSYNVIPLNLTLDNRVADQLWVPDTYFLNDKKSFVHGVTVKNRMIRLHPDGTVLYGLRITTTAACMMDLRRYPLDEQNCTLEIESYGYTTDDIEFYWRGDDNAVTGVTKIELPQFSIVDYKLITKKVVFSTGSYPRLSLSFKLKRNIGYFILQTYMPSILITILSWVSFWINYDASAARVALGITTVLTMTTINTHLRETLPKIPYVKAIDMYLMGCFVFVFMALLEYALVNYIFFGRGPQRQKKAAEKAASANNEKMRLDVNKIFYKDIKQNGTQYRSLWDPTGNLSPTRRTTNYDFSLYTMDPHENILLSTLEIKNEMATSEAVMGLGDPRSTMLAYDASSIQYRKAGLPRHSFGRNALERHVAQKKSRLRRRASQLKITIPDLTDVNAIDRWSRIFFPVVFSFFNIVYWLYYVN
Chain of recombinant α1β2γ2 GABAA receptors (P18507 40-475): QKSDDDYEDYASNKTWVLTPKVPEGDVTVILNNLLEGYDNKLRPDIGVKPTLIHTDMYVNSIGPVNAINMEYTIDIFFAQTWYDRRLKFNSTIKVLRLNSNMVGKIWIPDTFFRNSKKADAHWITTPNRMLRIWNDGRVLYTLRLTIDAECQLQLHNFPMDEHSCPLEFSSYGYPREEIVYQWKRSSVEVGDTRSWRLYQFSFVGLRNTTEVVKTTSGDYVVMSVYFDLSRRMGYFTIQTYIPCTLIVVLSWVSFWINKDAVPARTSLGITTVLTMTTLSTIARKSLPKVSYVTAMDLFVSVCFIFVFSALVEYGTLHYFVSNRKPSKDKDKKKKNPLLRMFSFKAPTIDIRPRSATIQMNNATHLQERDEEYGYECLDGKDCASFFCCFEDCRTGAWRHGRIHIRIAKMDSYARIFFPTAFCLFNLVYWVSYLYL

[5] = system: 55 radioligand-receptor interactions; test: Radioligand competition binding screen, whole panel; conditions: 10 μM CLP257, 55 interactions
KCC2 [6] = target: T2, KCC2 (Homo sapiens, UniProt Q9H2X9); test: Rb+ flux assay in X. laevis oocytes expressing KCC2; format: cell-based; conditions: 200 nM pre-incubation, 45 min Rb+ influx, vs vehicle
T2 sequence (Q9H2X9 1-1139): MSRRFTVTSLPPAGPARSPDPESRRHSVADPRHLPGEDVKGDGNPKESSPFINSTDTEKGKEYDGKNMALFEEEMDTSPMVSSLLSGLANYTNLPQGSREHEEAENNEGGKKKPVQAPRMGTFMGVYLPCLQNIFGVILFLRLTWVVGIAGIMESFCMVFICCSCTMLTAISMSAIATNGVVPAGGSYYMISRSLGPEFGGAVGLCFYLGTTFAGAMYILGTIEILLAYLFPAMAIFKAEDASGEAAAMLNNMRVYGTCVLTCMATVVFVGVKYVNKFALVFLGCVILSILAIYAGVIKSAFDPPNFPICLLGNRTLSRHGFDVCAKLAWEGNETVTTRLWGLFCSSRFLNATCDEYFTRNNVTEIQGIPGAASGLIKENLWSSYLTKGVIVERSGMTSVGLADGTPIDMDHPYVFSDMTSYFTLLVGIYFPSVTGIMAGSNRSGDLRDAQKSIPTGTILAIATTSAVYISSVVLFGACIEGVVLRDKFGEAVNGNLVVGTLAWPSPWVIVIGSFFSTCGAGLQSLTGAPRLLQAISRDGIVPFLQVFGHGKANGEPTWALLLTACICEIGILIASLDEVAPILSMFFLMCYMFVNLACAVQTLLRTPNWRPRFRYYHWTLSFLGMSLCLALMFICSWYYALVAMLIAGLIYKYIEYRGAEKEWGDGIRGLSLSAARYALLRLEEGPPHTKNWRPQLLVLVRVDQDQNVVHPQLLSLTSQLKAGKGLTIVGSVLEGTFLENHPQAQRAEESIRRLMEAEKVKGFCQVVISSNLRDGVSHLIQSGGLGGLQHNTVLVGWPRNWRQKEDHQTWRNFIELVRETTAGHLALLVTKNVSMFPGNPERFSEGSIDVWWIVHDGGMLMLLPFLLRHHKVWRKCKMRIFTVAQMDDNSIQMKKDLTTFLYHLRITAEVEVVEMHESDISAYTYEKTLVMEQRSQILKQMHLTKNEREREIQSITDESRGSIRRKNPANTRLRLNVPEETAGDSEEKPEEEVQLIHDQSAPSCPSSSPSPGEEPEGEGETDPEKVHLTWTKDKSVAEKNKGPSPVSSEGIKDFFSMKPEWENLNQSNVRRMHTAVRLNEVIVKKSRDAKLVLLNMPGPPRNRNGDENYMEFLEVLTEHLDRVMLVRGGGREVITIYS

GABAA receptor = test: Evoked GABAA currents in SDH neurons with VU0240551; format: cell-based, rat; conditions: acute application, 25 and 100 μM, in the presence of VU0240551
HEK293-cl cells = test: Clomeleon assay of [Cl−]i in HEK293-cl cells; format: cell-based, Human; conditions: HEK293-cl cells (no KCC2; express NKCC1, KCC1, KCC3, KCC4)
[7] = system: superficial dorsal horn (SDH) neurons; test: Whole-cell recording of EGABA under Cl− load in superficial dorsal horn neurons; format: cell-based, rat; conditions: 25 μM, BDNF-treated and PNI slices
[8] = system: superficial dorsal horn field responses; format: in vivo, rat; conditions: local spinal 100 μM
Metabolite analyses = format: in vivo; conditions: not shown
[9] = 5 h, [Cl−]i reduction, clomeleon assay, 5 h exposure
[10] = [Cl−]i reduction, clomeleon assay, 5 h exposure

Chain of hERG channel (Q12809 whole entry): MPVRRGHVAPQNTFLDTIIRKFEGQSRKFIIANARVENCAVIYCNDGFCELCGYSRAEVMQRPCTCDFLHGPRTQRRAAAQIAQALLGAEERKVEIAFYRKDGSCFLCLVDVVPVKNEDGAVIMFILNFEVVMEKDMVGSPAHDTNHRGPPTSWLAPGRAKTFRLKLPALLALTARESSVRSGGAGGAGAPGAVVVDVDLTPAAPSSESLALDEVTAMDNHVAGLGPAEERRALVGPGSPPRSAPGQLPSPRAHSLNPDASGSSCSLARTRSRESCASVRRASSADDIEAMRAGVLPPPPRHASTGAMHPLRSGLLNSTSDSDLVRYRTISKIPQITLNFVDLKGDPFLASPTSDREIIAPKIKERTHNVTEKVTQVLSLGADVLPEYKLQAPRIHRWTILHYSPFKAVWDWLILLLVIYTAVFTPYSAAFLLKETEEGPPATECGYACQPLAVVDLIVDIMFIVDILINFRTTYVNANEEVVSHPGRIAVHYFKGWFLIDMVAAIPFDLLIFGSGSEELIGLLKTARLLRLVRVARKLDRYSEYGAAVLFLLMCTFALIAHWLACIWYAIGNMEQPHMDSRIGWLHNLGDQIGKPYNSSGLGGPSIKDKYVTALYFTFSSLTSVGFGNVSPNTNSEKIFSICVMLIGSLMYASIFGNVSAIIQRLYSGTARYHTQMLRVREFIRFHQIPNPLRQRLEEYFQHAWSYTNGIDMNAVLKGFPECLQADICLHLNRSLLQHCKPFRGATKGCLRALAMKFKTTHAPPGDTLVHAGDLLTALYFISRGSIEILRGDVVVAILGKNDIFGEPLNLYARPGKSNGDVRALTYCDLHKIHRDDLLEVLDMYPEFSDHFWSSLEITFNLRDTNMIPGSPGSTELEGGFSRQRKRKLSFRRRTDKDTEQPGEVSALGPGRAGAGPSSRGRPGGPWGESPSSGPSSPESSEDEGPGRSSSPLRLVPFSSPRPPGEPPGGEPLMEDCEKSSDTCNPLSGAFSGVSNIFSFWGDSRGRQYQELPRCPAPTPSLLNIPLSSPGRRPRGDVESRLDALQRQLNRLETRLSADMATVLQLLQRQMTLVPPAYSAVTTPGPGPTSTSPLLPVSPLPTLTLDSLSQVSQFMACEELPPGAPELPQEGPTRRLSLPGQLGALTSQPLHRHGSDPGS

SMILES: O=C1N=C(N2CCCCN2)S/C1=C\c1ccc(F)cc1OC(=O)N1CCCC1 [CLP290, 2-{[(5Z)-2-(1,2-diazinan-1-yl)-4-oxo-4,5-dihydro-1,3-thiazol-5-ylidene]methyl}-5-fluorophenyl pyrrolidine-1-carboxylate]
- maximal oral analgesic efficacy (PNI rats; PO, 100 mg kg^−1 vs Pregabalin 30 mg kg^−1): equivalent to that of Pregabalin
- IC50 (hERG channel): 224 µM
- maximal plasma concentration and exposure of CLP257 vs native CLP257 ([1]; analyte CLP257 after CLP290): improved maximal plasma concentration and exposure
- motor function on accelerating rotorod (rats): no effect

SMILES: Oc1cc(F)ccc1/C=C1\SC(N2CCCCN2)=NC1=S [CLP355, (5Z)-2-(1,2-diazinan-1-yl)-5-[(4-fluoro-2-hydroxyphenyl)methylidene]-4,5-dihydro-1,3-thiazole-4-thione]
- EC50 (NG108-cl cells; [9]): 50 nM

SMILES: O=C1N=C(N2CCCCN2)S/C1=C\c1ccc(F)cc1OC1OC(C(=O)O)C(O)C(O)C1O (centres unmarked) [CLP386, 6-(2-{[(5Z)-2-(1,2-diazinan-1-yl)-4-oxo-4,5-dihydro-1,3-thiazol-5-ylidene]methyl}-5-fluorophenoxy)-3,4,5-trihydroxyoxane-2-carboxylic acid]
- EC50 (μM) (NG108-cl cells; [10]): inactive

SMILES: Cc1csc(NC(=O)CSc2ccc(-c3ccccc3)nn2)n1 [VU0240551, reference compound]
- antagonism of the [Cl−]i response to CLP257 (NG108-cl cells; CLP257 500 nM, 5 h exposure): dose-dependent antagonism

SMILES: CC(C)C[C@H](CN)CC(=O)O [Pregabalin, reference compound]
- motor function on accelerating rotorod (rats): depressed motor function

SMILES: O=C1N=C(N2CCCCC2)S/C1=C\c1ccccc1O [CL-058, (5Z)-5-[(2-hydroxyphenyl)methylidene]-2-(piperidin-1-yl)-4,5-dihydro-1,3-thiazol-4-one]
- EC50 (NG108-cl cells; [10]): 31500 nM

SMILES: O=C1N=C(N2CCCCN2)S/C1=C\c1ccc(F)cc1O [CLP257, (5Z)-2-(1,2-diazinan-1-yl)-5-[(4-fluoro-2-hydroxyphenyl)methylidene]-4,5-dihydro-1,3-thiazol-4-one]
- maximal analgesic effect compared with Gabapentin (PNI rats; IP): much weaker than that of Gabapentin
- mechanical withdrawal thresholds (PNI rats; IP, peaking at 100 mg kg^−1, 2 h post-injection): increased withdrawal thresholds
- Caspase-3 activation (rat hepatoma H4IIE cells): not detected
- change of transport activity (Rb+ influx) in other CCCs (other CCCs): no change
- increase of the rate of Cl− accumulation (KCC2 [2]; BDNF-treated spinal slices): 26%
- increase of the rate of Cl− accumulation (KCC2 [2]; PNI spinal slices): 45%
- Cl− transport (KCC2 [2]; 100 μM, BDNF-treated slices): completely restored Cl^− transport to control levels
- cell surface expression of KCC2 monomers and dimers (KCC2 [3]): increased
- total KCC2 expression (KCC2 [3]): not significantly affected
- agonist effect relative to the effect of 5 μM muscimol [4]: < 0.2%
- inhibition of radioligand-receptor interactions, maximum over the panel [5]: ≤ 30%
- IC50 (hERG channel): 449 µM
- half-life ([1]; male, Sprague-Dawley, plasma): < 15 min
- increase of KCC2 transport activity (Rb+ influx) (KCC2 [6]): 61%
- effect on evoked GABAA currents (GABAA receptor): no effect
- change in [Cl−]i (HEK293-cl cells): no change
- EGABA (reversal potential for GABAA currents) [7]: hyperpolarized
- EC50 (NG108-cl cells; [9]): 616 nM
- Maximal [Cl−]i reduction (NG108-cl cells; NG108-cl cells): ~ 40%
- drop from resting [Cl−]i of 57 mM (NG108-cl cells; at maximal effect): 23 mM
- evoked field responses ([8]; animals with nerve injury (PNI)): renormalized
- effect on the stimulus-response relationship of evoked field responses ([8]; naïve animals, 2.5 to 135 g (mm^2)^−1): no effect
- metabolism of the hydroxyl moiety (Metabolite analyses): rapidly undergoes glucuronidation
